Data: article PMC10732257 (Oncotarget, 2023)

How the values were obtained:
CDK18/cyclin Y = molecular target: T1, CDK18/cyclin Y (Homo sapiens, UniProt Q07002); experiment: CDK family off-target kinase activity (Eurofins); assay type: biochemical
T1 construct: purchased Eurofins Pharma Discovery Services UK Ltd
Experimental: (§1) GFH009 inhibition activity against the CDK9/cyclin T1 complex as well as off-target CDK family reactivity were assayed by Eurofins Pharma Discovery Services UK Ltd., (Dundee, UK). Determination of off-target inhibition of other kinases was conducted by DiscoverX LeadHunter Discovery Services (Freemont, CA, USA.) GFH009 reactivity to GPCR family members was assayed by Wuxi AppTech (Shanghai, China).
(§2) The pharmacodynamic and mechanistic foundation for the
(§3) CDK9 inhibitor for the treatment of hematologic malignancies
(§4) Supplementary Table 1: Inhibitory action of GFH009 on other CDK family members
(§5) Various CDK/ Remaining enzymatic activity (%) after
(§6) cognate cyclin pairs tested exposure to GFH009 at a concentration of Selectivity vs. CDK9
(§7) (also on this page, place not known: www.oncotarget.com Oncotarget, Materials Supplementary)
(§8) (1 picture or pasted object on this page, not shown here)

CDK3/cyclin E = molecular target: T2, CDK3/cyclin E (Homo sapiens, UniProt Q00526); experiment: CDK family off-target kinase activity (Eurofins); assay type: biochemical
T2 construct: purchased Eurofins Pharma Discovery Services UK Ltd
T2 sequence (Q00526 whole entry): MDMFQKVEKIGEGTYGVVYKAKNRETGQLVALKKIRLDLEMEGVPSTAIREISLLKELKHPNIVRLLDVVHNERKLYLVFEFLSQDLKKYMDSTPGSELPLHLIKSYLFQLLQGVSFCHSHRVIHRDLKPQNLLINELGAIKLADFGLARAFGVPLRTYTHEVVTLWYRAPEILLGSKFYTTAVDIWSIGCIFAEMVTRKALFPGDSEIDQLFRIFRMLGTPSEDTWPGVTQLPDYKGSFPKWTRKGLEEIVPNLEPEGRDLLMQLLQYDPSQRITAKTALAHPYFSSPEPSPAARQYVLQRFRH
T2 sequence (P24864 whole entry partner): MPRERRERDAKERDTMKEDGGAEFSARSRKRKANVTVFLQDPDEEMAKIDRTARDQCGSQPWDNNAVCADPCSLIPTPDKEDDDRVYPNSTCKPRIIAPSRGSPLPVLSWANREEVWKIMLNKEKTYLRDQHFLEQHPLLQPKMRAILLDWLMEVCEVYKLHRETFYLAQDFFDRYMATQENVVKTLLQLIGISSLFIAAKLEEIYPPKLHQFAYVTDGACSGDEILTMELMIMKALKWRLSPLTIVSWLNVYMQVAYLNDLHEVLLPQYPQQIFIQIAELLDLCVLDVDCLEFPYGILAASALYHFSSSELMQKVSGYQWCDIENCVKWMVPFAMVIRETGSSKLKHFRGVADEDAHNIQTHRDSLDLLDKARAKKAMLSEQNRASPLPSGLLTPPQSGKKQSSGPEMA
Experimental: as §1, §2, §3, §4, §5, §6, §7, §8

CDK6/cyclin D3 = molecular target: T3, CDK6/cyclin D3 (Homo sapiens, UniProt Q00534); experiment: CDK family off-target kinase activity (Eurofins); assay type: biochemical
T3 construct: purchased Eurofins Pharma Discovery Services UK Ltd
T3 sequence (Q00534 whole entry): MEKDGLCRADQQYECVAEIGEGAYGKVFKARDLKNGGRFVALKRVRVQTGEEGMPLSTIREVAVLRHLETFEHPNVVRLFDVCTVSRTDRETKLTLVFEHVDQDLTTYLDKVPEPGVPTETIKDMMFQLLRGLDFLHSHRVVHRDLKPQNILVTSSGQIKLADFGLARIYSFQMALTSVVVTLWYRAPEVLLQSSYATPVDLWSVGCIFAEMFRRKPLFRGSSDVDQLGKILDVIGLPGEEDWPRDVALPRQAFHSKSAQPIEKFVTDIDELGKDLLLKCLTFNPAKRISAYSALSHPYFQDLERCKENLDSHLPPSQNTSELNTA
T3 sequence (P30281 whole entry partner): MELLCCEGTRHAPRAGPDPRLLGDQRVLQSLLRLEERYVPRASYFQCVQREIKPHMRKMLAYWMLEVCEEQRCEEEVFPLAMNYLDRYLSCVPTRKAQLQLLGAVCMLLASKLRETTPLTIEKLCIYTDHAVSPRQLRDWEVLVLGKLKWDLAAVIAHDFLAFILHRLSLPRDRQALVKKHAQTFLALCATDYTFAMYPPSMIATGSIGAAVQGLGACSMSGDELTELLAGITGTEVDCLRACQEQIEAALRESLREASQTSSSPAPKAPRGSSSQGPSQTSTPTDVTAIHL
Experimental: as §1, §2, §3, §4, §5, §6, §7, §8

Cdc7/cyclinB1 = molecular target: T4, Cdc7/cyclinB1 (Homo sapiens, UniProt O00311); experiment: CDK family off-target kinase activity (Eurofins); assay type: biochemical
T4 construct: purchased Eurofins Pharma Discovery Services UK Ltd
T4 sequence (O00311 whole entry): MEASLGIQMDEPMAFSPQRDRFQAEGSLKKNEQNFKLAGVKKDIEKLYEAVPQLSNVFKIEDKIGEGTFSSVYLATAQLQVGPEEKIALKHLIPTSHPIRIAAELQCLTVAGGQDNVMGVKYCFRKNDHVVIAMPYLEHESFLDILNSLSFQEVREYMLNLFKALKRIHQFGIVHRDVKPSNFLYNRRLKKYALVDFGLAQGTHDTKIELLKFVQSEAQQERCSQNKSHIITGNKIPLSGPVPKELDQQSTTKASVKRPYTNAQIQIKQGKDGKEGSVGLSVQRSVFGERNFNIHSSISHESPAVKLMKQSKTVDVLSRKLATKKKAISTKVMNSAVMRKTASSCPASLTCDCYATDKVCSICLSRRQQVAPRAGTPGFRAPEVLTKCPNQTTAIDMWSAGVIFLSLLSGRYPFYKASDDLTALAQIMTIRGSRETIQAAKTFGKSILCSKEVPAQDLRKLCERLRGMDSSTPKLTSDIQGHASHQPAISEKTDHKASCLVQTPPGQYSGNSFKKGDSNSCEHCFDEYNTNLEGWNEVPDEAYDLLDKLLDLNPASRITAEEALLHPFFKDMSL
Experimental: as §1, §2, §3, §4, §5, §6, §7, §8

MV-4-11 xenograft tumor = experiment: Western blot of CDK9-dependent protein expression in MV-4-11 xenograft tumor tissue; assay type: in vivo, female BALB/c nude mice; details: single dose 15 mg/kg i.v.
Experimental: Figure 9 Effect of GFH009 treatment on CDK9-dependent protein expression in vivo. Female BALB/c nude mice were subcutaneously inoculated with 5 × 10^6 MV-4-11 cells. […] The mice were euthanized, and tumor tissues were collected at different times after administration as indicated for western blot analysis. Three individual mice were selected from GFH009 treatment group.
In vivo protein expression was assessed via SDS-PAGE and western blotting of samples from female BALB/c nude mice following treatment with GHF009. […] When tumors reached approximately 600 mm^3 (Day 25), animals were randomly divided into two groups. Group 1 received a single dose of vehicle control. […] Both were administered via tail vein injection.
All mice were euthanized, and tumor tissues collected at required times following administration. Group 1 control animals were euthanized at 2 hours post-administration. Group 2 animals were euthanized at 1, 2, 4, 8, 24, and 48 hours after administration. Tumor tissue was harvested, weighed, and flash frozen in liquid nitrogen. Total proteins were extracted and analyzed by western blot to determine expression of phospho-Rpb1 CTD Ser2, RPB1, MYC, MCL-1, Cleaved Caspase-3, and vinculin. Image Studio V5.0 was used to analyze all western blot membrane images.

T1 sequence (Q07002 whole entry): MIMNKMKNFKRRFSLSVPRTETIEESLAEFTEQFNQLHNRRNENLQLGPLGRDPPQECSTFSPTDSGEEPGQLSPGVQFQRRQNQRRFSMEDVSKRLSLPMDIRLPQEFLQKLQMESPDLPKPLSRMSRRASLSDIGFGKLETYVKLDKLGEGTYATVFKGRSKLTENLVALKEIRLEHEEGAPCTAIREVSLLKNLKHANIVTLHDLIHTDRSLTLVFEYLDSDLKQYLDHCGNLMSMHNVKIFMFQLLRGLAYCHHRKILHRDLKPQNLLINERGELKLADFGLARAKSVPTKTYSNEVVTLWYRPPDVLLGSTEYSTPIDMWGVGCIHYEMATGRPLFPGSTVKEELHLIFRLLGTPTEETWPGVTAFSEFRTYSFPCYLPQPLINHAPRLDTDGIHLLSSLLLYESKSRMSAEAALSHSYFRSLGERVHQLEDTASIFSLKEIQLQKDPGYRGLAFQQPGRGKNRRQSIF
T1 sequence (Q8ND76 whole entry partner): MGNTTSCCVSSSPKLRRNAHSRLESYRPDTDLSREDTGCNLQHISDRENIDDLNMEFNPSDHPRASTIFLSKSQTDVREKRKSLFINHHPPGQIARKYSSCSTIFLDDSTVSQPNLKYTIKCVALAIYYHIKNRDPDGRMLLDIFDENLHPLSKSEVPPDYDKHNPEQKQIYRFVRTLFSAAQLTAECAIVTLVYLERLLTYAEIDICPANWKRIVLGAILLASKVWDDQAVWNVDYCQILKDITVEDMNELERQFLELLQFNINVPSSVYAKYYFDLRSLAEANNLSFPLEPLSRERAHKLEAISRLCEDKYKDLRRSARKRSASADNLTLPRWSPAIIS

## COC[C@@H](C)NC1CCC(Nc2cc(-c3csc(NCC4(C#N)CCOCC4)n3)c(Cl)cn2)CC1 (some centres unmarked) [GFH009]
CDK18/cyclin Y
  Selectivity vs. CDK9: > 100
CDK18/cyclin Y; 1 µM
  Remaining enzymatic activity (%) after exposure to GFH009: 53%
CDK18/cyclin Y; 10 µM
  Remaining enzymatic activity (%) after exposure to GFH009: 12%
CDK3/cyclin E
  Selectivity vs. CDK9: > 100
CDK3/cyclin E; 1 µM
  Remaining enzymatic activity (%) after exposure to GFH009: 74%
CDK3/cyclin E; 10 µM
  Remaining enzymatic activity (%) after exposure to GFH009: 39%
CDK6/cyclin D3
  Selectivity vs. CDK9: > 1000
CDK6/cyclin D3; 1 µM
  Remaining enzymatic activity (%) after exposure to GFH009: 85%
CDK6/cyclin D3; 10 µM
  Remaining enzymatic activity (%) after exposure to GFH009: 58%
Cdc7/cyclinB1
  Selectivity vs. CDK9: > 100
Cdc7/cyclinB1; 1 µM
  Remaining enzymatic activity (%) after exposure to GFH009: 75%
Cdc7/cyclinB1; 10 µM
  Remaining enzymatic activity (%) after exposure to GFH009: 47%
MV-4-11 xenograft tumor; from 2 hours through 48-hour time point
  Levels of MCL-1 and MYC in tumor: began to decrease significantly
MV-4-11 xenograft tumor; from one hour through 48 hours post-administration
  Expression of p-Rpb1 phospho-Ser2 in tumor: began to decrease significantly
